This is an account of results in US20080234297A1, “HSP90 Inhibitors Containing a Zinc Binding Moiety” (priority 2007, published 2008).

Series [1] relates to HDAC (HeLa nuclear extract). Nature of the series: HDAC fluorimetric assay kit (AK-500, Biomol), inhibition of HDAC enzymatic activity. The format is biochemical. The settings on record: Fluor de Lys substrate, graded IC50. As to the method:
(b) An In Vitro Assay which Determines the Ability of a Test Compound to Inhibit HDAC Enzymatic Activity.
HDAC inhibitors were screened using an HDAC fluorimetric assay kit (AK-500, Biomol, Plymouth Meeting, Pa.). Test compounds were dissolved in dimethylsulphoxide (DMSO) to give a 20 mM working stock concentration. Fluorescence was measured on a WALLAC Victor 2 plate reader and reported as relative fluorescence units (RFU). Data were plotted using GraphPad Prism (v4.0a) and IC50's calculated using a sigmoidal dose response curve fitting algorithm. Each assay was setup as follows: Defrosted all kit components and kept on ice until use. Diluted HeLa nuclear extract 1:29 in Assay Buffer (50 mM Tris/Cl, pH 8.0, 137 mM NaCl, 2.7 mM KCl, 1 mM MgCl2). Prepared dilutions of Trichostatin A (TSA, positive control) and tested compounds in assay buffer (5× of final concentration). Diluted Fluor de Lys™ Substrate in assay buffer to 100 uM (50 fold=2× final). Diluted Fluor de Lys™ developer concentrate 20-fold (e.g. 50 μl plus 950 μl Assay Buffer) in cold assay buffer. Second, diluted the 0.2 mM Trichostatin A 100-fold in the 1× Developer (e.g. 10 μl in 1 ml; final Trichostatin A concentration in the 1× Developer=2 μM; final concentration after addition to HDAC/Substrate reaction=1 μM). Added Assay buffer, diluted trichostatin A or test inhibitor to appropriate wells of the microtiter plate. Added diluted HeLa extract or other HDAC sample to all wells except for negative controls. Allowed diluted Fluor de Lys™ Substrate and the samples in the microtiter plate to equilibrate to assay temperature (e.g. 25 or 37° C. Initiated HDAC reactions by adding diluted substrate (25 μl) to each well and mixing thoroughly. Allowed HDAC reactions to proceed for 1 hour and then stopped them by addition of Fluor de Lys™ Developer ([…]). Incubated plate at room temperature (25° C.) for 10-15 min. Read samples in a microtiter-plate reading fluorimeter capable of excitation at a wavelength in the range 350-380 nm and detection of emitted light in the range 440-460 nm.
(§1) The following TABLE B lists compounds representative of the invention and their activity in HDAC and HSP90 assays. In these assays, the following grading was used: I≧10 μM, 10 μM>II>1 μM, 1 μM>III>0.1 μM, and IV≦0.1 μM for IC50.

The target in another series is HSP90. As to the kind of experiment: Hsp90 chaperone assay (refolding of heat-denatured luciferase). The format is biochemical. The settings on record: luminescence readout, graded IC50. On the procedure: (a) An In Vitro Assay which Determines the Ability of a Test Compound to Inhibit Hsp90 Chaperone Activity.
The Hsp90 chaperone assay was performed to measure the ability of HSP90 protein to refold the heat-denatured luciferase protein. HSP90 was first incubated with different concentrations of test compounds in denaturation buffer (25 mM Tris, pH7.5, 8 mM MgSO4, 0.01% bovine gamma globulin and 10% glycerol) at room temperature for 30 min. Luciferase protein was added to denaturation mix and incubated at 50° C. for 8 min. The final concentration of HSP90 and luciferase in denaturation mixture were 0.375 μM and 0.125 μM respectively. A 5 μl sample of the denatured mix was diluted into 25 μl of renaturation buffer (25 mM Tris, pH7.5, 8 mM MgSO4, 0.01% bovine gamma globulin and 10% glycerol, 0.5 mM ATP, 2 mM DTT, 5 mM KCl, 0.3 μM HSP70 and 0.15 μM HSP40). The renaturation reaction was incubated at room temperature for 150 min, followed by dilution of 10 μl of the renatured sample into 90 μl of luciferin reagent (Luclite, PerkinElmer Life Science). The mixture was incubated at dark for 5 min before reading the luminescence signal on a TopCount plate reader (PerkinElmer Life Science).
as §1

Some results are limits rather than exact numbers.

A word on the melting point: it is the temperature of the solid-liquid transition. `Nc1ncnc2c1nc(Sc1cc3c(cc1Br)OCO3)n2CC(=O)NO` [Compound 1, 2-(6-amino-8-(6-bromobenzo[d][1,3]dioxol-5-ylthio)-9H-purin-9-yl)-N-hydroxyacetamide]: the melting point was 230 °C (dec.).

As a reminder, the IC50 is the concentration that gives 50% inhibition. Regarding `Nc1ncnc2c1nc(Sc1cc3c(cc1Br)OCO3)n2CCCCCC(=O)NO` [Compound 5, 6-(6-amino-8-(6-bromobenzo[d][1,3]dioxol-5-ylthio)-9H-purin-9-yl)-N-hydroxyhexanamide], the IC50 (in series [1]; against HSP90) was 100 to 1000 nM in each case.

With `Nc1ncnc2c1nc(Sc1cc3c(cc1Br)OCO3)n2CCCCCCC(=O)NO` [Compound 6, 7-(6-amino-8-(6-bromobenzo[d][1,3]dioxol-5-ylthio)-9H-purin-9-yl)-N-hydroxyheptanamide], the IC50 in series [1] was at most 100 nM; on HSP90, 100 to 1000 nM.

In series [1], `COc1ccc(I)c(Sc2nc3c(N)ncnc3n2CCCCCCC(=O)NO)c1` [Compound 12, 7-(6-amino-8-(2-iodo-5-methoxyphenylthio)-9H-purin-9-yl)-N-hydroxyheptanamide] displayed an IC50 of at most 100 nM.

With `C#CCCCn1c(Sc2cccc(C(=O)NO)c2)nc2c(N)ncnc21` [Compound 13], the IC50 (in series [1]; on HSP90) was at least 10000 nM in each case.

The compound `C#CCCCn1c(Sc2cccc(OCC(=O)NO)c2)nc2c(N)ncnc21` [Compound 14, 2-(3-(6-amino-9-(pent-4-ynyl)-9H-purin-8-ylthio)phenoxy)-N-hydroxyacetamide] registered an IC50 in series [1] of 100 to 1000 nM.

As for `C#CCCCn1c(Sc2cccc(OCCCC(=O)NO)c2)nc2c(N)ncnc21` [Compound 16, 4-(3-(6-amino-9-(pent-4-ynyl)-9H-purin-8-ylthio)phenoxy)-N-hydroxybutanamide], the figures for the IC50 (in series [1]; against HSP90) were at most 100 nM and at least 10000 nM, respectively.

As for `C#CCCCn1c(Sc2cccc(OCCCCCC(=O)NO)c2)nc2c(N)ncnc21` [Compound 18, 6-(3-(6-amino-9-(pent-4-ynyl)-9H-purin-8-ylthio)phenoxy)-N-hydroxyhexanamide], the values for the IC50 (in series [1]; against HSP90) were at most 100 nM and at least 10000 nM, respectively.

Take `Nc1ncnc2c1nc(Sc1cc3c(cc1Br)OCO3)n2CCNCCC(=O)NO` [Compound 20, 3-(2-(6-amino-8-(6-bromobenzo[d][1,3]dioxol-5-ylthio)-9H-purin-9-yl)ethylamino)-N-hydroxypropanamide]: the IC50 in series [1] is at least 10000 nM; against HSP90, 100 to 1000 nM.

For the compound `Nc1ncnc2c1nc(Sc1cc3c(cc1Br)OCO3)n2CCNCCCCCC(=O)NO` [Compound 23, 6-(2-(6-amino-8-(6-bromobenzo[d][1,3]dioxol-5-ylthio)-9H-purin-9-yl)ethylamino)-N-hydroxyhexanamide], the figures for the IC50 (in series [1]; on HSP90) were at most 100 nM and 100 to 1000 nM, respectively.

Regarding `Nc1ncnc2c1nc(Sc1cc3c(cc1Br)OCO3)n2CCNCCCCCCC(=O)NO` [Compound 24, 7-(2-(6-amino-8-(6-bromobenzo[d][1,3]dioxol-5-ylthio)-9H-purin-9-yl)ethylamino)-N-hydroxyheptanamide], the results for the IC50 (in series [1]; against HSP90) were at most 100 nM and 100 to 1000 nM, respectively.

Consider `Nc1ncnc2c1nc(Sc1cc3c(cc1Br)OCO3)n2CCOCCCC(=O)NO` [Compound 27, 4-(2-(6-amino-8-(6-bromobenzo[d][1,3]dioxol-5-ylthio)-9H-purin-9-yl)ethoxy)-N-hydroxybutanamide], for which the IC50 (in series [1]; against HSP90) was at least 10000 nM each time.

Consider `Nc1ncnc2c1nc(Sc1cc3c(cc1Br)OCO3)n2CCOCCCCC(=O)NO` [Compound 28, 5-(2-(6-amino-8-(6-bromobenzo[d][1,3]dioxol-5-ylthio)-9H-purin-9-yl)ethoxy)-N-hydroxypentanamide], for which the IC50 in series [1] was 1000 to 10000 nM; against HSP90, at least 10000 nM.

For the compound `Nc1ncnc2c1nc(Sc1cc3c(cc1Br)OCO3)n2CCOCCCCCC(=O)NO` [Compound 29, 6-(2-(6-amino-8-(6-bromobenzo[d][1,3]dioxol-5-ylthio)-9H-purin-9-yl)ethoxy)-N-hydroxyhexanamide], the IC50 in series [1] was 1000 to 10000 nM; at HSP90, at least 10000 nM.

In the case of `Nc1ncnc2c1nc(Sc1cc3c(cc1Br)OCO3)n2CCOCCCCCCC(=O)NO` [Compound 30, 7-(2-(6-amino-8-(6-bromobenzo[d][1,3]dioxol-5-ylthio)-9H-purin-9-yl)ethoxy)-N-hydroxyheptanamide], the half-maximal inhibitory concentration (IC50) in series [1] was at most 100 nM; against HSP90, at least 10000 nM.

As to `Nc1ncnc2c1nc(Sc1cc3c(cc1Cl)OCO3)n2CCCCCCC(=O)NO` [Compound 31, 7-(6-amino-8-(6-chlorobenzo[d][1,3]dioxol-5-ylthio)-9H-purin-9-yl)-N-hydroxyheptanamide], the IC50 in series [1] is at most 100 nM; against HSP90, 1000 to 10000 nM.

Turning to `Nc1ncnc2c1nc(Sc1cc3c(cc1I)OCO3)n2CCCCCCC(=O)NO` [Compound 32, 7-(6-amino-8-(6-iodobenzo[d][1,3]dioxol-5-ylthio)-9H-purin-9-yl)-N-hydroxyheptanamide], the IC50 (in series [1]; at HSP90) was at most 100 nM in each case.

As for `Nc1ncnc2c1nc(Sc1cc3c(cc1Br)OCO3)n2CCNCC(=O)NO` [Compound 33], the IC50 was at least 10000 nM in series [1] and 100 to 1000 nM on HSP90.

Consider `Nc1nccc2c1nc(Sc1cc3c(cc1Cl)OCO3)n2CCCCCCC(=O)NO` [Compound 34, 7-(4-amino-2-(6-chlorobenzo[d][1,3]dioxol-5-ylthio)-1H-imidazo[4,5-c]pyridin-1-yl)-N-hydroxyheptanamide], for which the IC50 is at most 100 nM in series [1] and 1000 to 10000 nM on HSP90.

As for `Nc1nccc2c1nc(Sc1cc3c(cc1Br)OCO3)n2CCCCCCC(=O)NO` [Compound 35, 7-(4-amino-2-(6-bromobenzo[d][1,3]dioxol-5-ylthio)-1H-imidazo[4,5-c]pyridin-1-yl)-N-hydroxyheptanamide], the IC50 in series [1] is at most 100 nM; at HSP90, 1000 to 10000 nM.

For `Nc1nccc2c1nc(Sc1cc3c(cc1I)OCO3)n2CCCCCCC(=O)NO` [Compound 36, 7-(4-amino-2-(6-iodobenzo[d][1,3]dioxol-5-ylthio)-1H-imidazo[4,5-c]pyridin-1-yl)-N-hydroxyheptanamide], the IC50 in series [1] was at most 100 nM; at HSP90, 100 to 1000 nM.

`Nc1ncnc2c1nc(Sc1cc3c(cc1I)OCO3)n2CCNCC(=O)NO` [Compound 37]: the IC50 in series [1] is at least 10000 nM; against HSP90, 100 to 1000 nM.

Regarding `Nc1ncnc2c1nc(Sc1cc3c(cc1I)OCO3)n2CCNCCCCCC(=O)NO` [Compound 38, 6-(2-(6-amino-8-(6-iodobenzo[d][1,3]dioxol-5-ylthio)-9H-purin-9-yl)ethylamino)-N-hydroxyhexanamide], the IC50 (in series [1]; against HSP90) was 100 to 1000 nM throughout.

With `Nc1ncnc2c1nc(Sc1cc3c(cc1I)OCO3)n2CCNCCCCCCC(=O)NO` [Compound 39, 7-(2-(6-amino-8-(6-iodobenzo[d][1,3]dioxol-5-ylthio)-9H-purin-9-yl)ethylamino)-N-hydroxyheptanamide], the IC50 in series [1] is at most 100 nM; against HSP90, 100 to 1000 nM.

On to `Nc1ncnc2c1nc(Sc1cc3c(cc1Br)OCO3)n2CCOCC(=O)NO` [Compound 40], for which the IC50 (in series [1]; on HSP90) was at least 10000 nM throughout.

In turn, `Nc1ncnc2c1nc(Sc1cc3c(cc1Br)OCO3)n2CCNCCCCCCCC(=O)NO` [Compound 41, 8-(2-(6-amino-8-(6-bromobenzo[d][1,3]dioxol-5-ylthio)-9H-purin-9-yl)ethylamino)-N-hydroxyoctanamide] gave an IC50 in series [1] of at most 100 nM.
